Test system: Monocotyledonous and dicotyledonous weed seeds and main crop seeds
Assay: Post-emergence test experiment, other weeds and crops (Table 4, 1000 g a.i./ha)
Format: in vivo
Details: 3 weeks in greenhouse, fresh weight inhibition
Protocol: The above described growth inhibition rate is fresh weight inhibition rate.
Post-emergence test experiment: Monocotyledonous and dicotyledonous weed seeds and main crop seeds (i. e. wheat, corn, rice, soybean, cotton, oilseed, millet and sorghum.) were put into a plastic pot loaded with soil. Then covered with 0.5-2 cm soil, the seeds were allowed to grow in good greenhouse environment. The test plants were treated at 2-3 leaf stage 2 weeks after sowing. The test compounds of the invention were dissolved with acetone respectively, then added with tween-80, and using 1.5 liters per hectare of an emulsible concentrate of methyl oleate as a synergist, and diluted by certain amount of water to certain concentration. The solution was sprayed to the plants with a sprayer.

SMILES | Activity level (growth inhibition rate), Abutilon theophrasti Medic. | Activity level (growth inhibition rate), Galium aparine | Activity level (growth inhibition rate), Monochoria Vaginalis
Nc1c(Cl)c(F)nc(O[C@@H](C(=O)[O-])c2ccccc2)c1Cl.[Na+] [Compound 2-1] | 5 (Level 5: the growth inhibition rate is greater than 85%) | 5 (Level 5: the growth inhibition rate is greater than 85%) | 5 (Level 5: the growth inhibition rate is greater than 85%)
CCC(Oc1nc(F)c(Cl)c(N)c1Cl)C(=O)[O-].C[N+](C)(C)Cc1ccccc1 (stereo not drawn) [Compound 2-5] | 5 (Level 5: the growth inhibition rate is greater than 85%) | 5 (Level 5: the growth inhibition rate is greater than 85%) | 5 (Level 5: the growth inhibition rate is greater than 85%)
C[N+](C)(C)CCO.Nc1c(Cl)c(F)nc(O[C@@H](C(=O)[O-])c2ccccc2)c1Cl [Compound 2-6] | 5 (Level 5: the growth inhibition rate is greater than 85%) | 5 (Level 5: the growth inhibition rate is greater than 85%) | 5 (Level 5: the growth inhibition rate is greater than 85%)
CC(C)N.Nc1c(Cl)c(F)nc(O[C@@H](C(=O)O)c2ccccc2)c1Cl [Compound 2-8] | 5 (Level 5: the growth inhibition rate is greater than 85%) | 5 (Level 5: the growth inhibition rate is greater than 85%) | 5 (Level 5: the growth inhibition rate is greater than 85%)
NCc1ccccc1 [Compound 2-9, benzylamine] | 5 (Level 5: the growth inhibition rate is greater than 85%) | 5 (Level 5: the growth inhibition rate is greater than 85%) | 5 (Level 5: the growth inhibition rate is greater than 85%)
CCC(Oc1nc(F)c(Cl)c(N)c1Cl)C(=O)O.NCCO (stereo not drawn) [Compound 2-10] | 5 (Level 5: the growth inhibition rate is greater than 85%) | 5 (Level 5: the growth inhibition rate is greater than 85%) | 5 (Level 5: the growth inhibition rate is greater than 85%)
NCCOCCO.Nc1c(Cl)c(F)nc(O[C@@H](C(=O)O)c2ccccc2)c1Cl [Compound 2-11] | 5 (Level 5: the growth inhibition rate is greater than 85%) | 5 (Level 5: the growth inhibition rate is greater than 85%) | 5 (Level 5: the growth inhibition rate is greater than 85%)
C=CCNCC=C.CCC(Oc1nc(F)c(Cl)c(N)c1Cl)C(=O)S (stereo not drawn) [Compound 2-12] | 5 (Level 5: the growth inhibition rate is greater than 85%) | 5 (Level 5: the growth inhibition rate is greater than 85%) | 5 (Level 5: the growth inhibition rate is greater than 85%)
NC1CCCCCCCCCCC1 [Compound 2-13, cyclododecylamine] | 5 (Level 5: the growth inhibition rate is greater than 85%) | 5 (Level 5: the growth inhibition rate is greater than 85%) | 5 (Level 5: the growth inhibition rate is greater than 85%)
NCCNCCN.Nc1c(Cl)c(F)nc(OC(C(=O)O)c2ccccc2)c1Cl (stereo not drawn) [Compound 2-15] | 5 (Level 5: the growth inhibition rate is greater than 85%) | 5 (Level 5: the growth inhibition rate is greater than 85%) | 5 (Level 5: the growth inhibition rate is greater than 85%)
CN(C)CCCN.Nc1c(Cl)c(F)nc(OC(C(=O)O)c2ccccc2)c1Cl (stereo not drawn) [Compound 2-16] | 5 (Level 5: the growth inhibition rate is greater than 85%) | 5 (Level 5: the growth inhibition rate is greater than 85%) | 5 (Level 5: the growth inhibition rate is greater than 85%)
NCCNCCNCCN [Compound 2-18, triethylenetetramine] | 5 (Level 5: the growth inhibition rate is greater than 85%) | 5 (Level 5: the growth inhibition rate is greater than 85%) | 5 (Level 5: the growth inhibition rate is greater than 85%)
CN(CCCN)CCCN [Compound 2-19, N,N-bis[aminopropyl]methylamine] | 5 (Level 5: the growth inhibition rate is greater than 85%) | 5 (Level 5: the growth inhibition rate is greater than 85%) | 5 (Level 5: the growth inhibition rate is greater than 85%)
CCCCOCCN [Compound 2-21, 2-butoxyethylamine] | 5 (Level 5: the growth inhibition rate is greater than 85%) | 5 (Level 5: the growth inhibition rate is greater than 85%) | 5 (Level 5: the growth inhibition rate is greater than 85%)
NC(CO)(CO)CO [Compound 2-23, tri(methylol) aminomethane] | 5 (Level 5: the growth inhibition rate is greater than 85%) | 5 (Level 5: the growth inhibition rate is greater than 85%) | 5 (Level 5: the growth inhibition rate is greater than 85%)
CCC(Oc1nc(F)c(Cl)c(N)c1Cl)C(=O)S.NCCCN1CCOCC1 (stereo not drawn) [Compound 2-25] | 5 (Level 5: the growth inhibition rate is greater than 85%) | 5 (Level 5: the growth inhibition rate is greater than 85%) | 5 (Level 5: the growth inhibition rate is greater than 85%)
CC[C@@H](Oc1nc(F)c(Cl)c(N)c1Cl)C(=O)SC [Compound 2-33] | 5 (Level 5: the growth inhibition rate is greater than 85%) | 5 (Level 5: the growth inhibition rate is greater than 85%) | 5 (Level 5: the growth inhibition rate is greater than 85%)
CCC(Oc1nc(F)c(Cl)c(N)c1Cl)C(=O)OC (stereo not drawn) [Compound 2-34] | 5 (Level 5: the growth inhibition rate is greater than 85%) | 5 (Level 5: the growth inhibition rate is greater than 85%) | 5 (Level 5: the growth inhibition rate is greater than 85%)
COC(=O)C(Oc1nc(F)c(Cl)c(N)c1Cl)C(C)C (stereo not drawn) [Compound 2-35] | 5 (Level 5: the growth inhibition rate is greater than 85%) | 5 (Level 5: the growth inhibition rate is greater than 85%) | 5 (Level 5: the growth inhibition rate is greater than 85%)
CSC(=O)C(Oc1nc(F)c(Cl)c(N)c1Cl)C(C)C (stereo not drawn) [Compound 2-36] | 5 (Level 5: the growth inhibition rate is greater than 85%) | 5 (Level 5: the growth inhibition rate is greater than 85%) | 5 (Level 5: the growth inhibition rate is greater than 85%)
CCCC(Oc1nc(F)c(Cl)c(N)c1Cl)C(=O)OC (stereo not drawn) [Compound 2-37] | 5 (Level 5: the growth inhibition rate is greater than 85%) | 5 (Level 5: the growth inhibition rate is greater than 85%) | 5 (Level 5: the growth inhibition rate is greater than 85%)
COC(=O)C(Oc1nc(F)c(Cl)c(N)c1Cl)C1CC1 (stereo not drawn) [Compound 2-38] | 5 (Level 5: the growth inhibition rate is greater than 85%) | 5 (Level 5: the growth inhibition rate is greater than 85%) | 5 (Level 5: the growth inhibition rate is greater than 85%)
COC(=O)C(Oc1nc(F)c(Cl)c(N)c1Cl)C(F)(F)F (stereo not drawn) [Compound 2-39] | 5 (Level 5: the growth inhibition rate is greater than 85%) | 5 (Level 5: the growth inhibition rate is greater than 85%) | 5 (Level 5: the growth inhibition rate is greater than 85%)
COC(=O)C(CC(F)(F)F)Oc1nc(F)c(Cl)c(N)c1Cl (stereo not drawn) [Compound 2-40] | 5 (Level 5: the growth inhibition rate is greater than 85%) | 5 (Level 5: the growth inhibition rate is greater than 85%) | 5 (Level 5: the growth inhibition rate is greater than 85%)
COC(=O)C(CCl)Oc1nc(F)c(Cl)c(N)c1Cl (stereo not drawn) [Compound 2-41] | 5 (Level 5: the growth inhibition rate is greater than 85%) | 5 (Level 5: the growth inhibition rate is greater than 85%) | 5 (Level 5: the growth inhibition rate is greater than 85%)
COC(=O)C(CCCl)Oc1nc(F)c(Cl)c(N)c1Cl (stereo not drawn) [Compound 2-42] | 5 (Level 5: the growth inhibition rate is greater than 85%) | 5 (Level 5: the growth inhibition rate is greater than 85%) | 5 (Level 5: the growth inhibition rate is greater than 85%)

Source: patent publication US12304890B2, “R-type pyridyloxycarboxylic acid, salt and ester derivative thereof, and preparation method therefor, and herbicidal composition and application thereof” (Qingdao Kingagroot Chemical Compound Co., Ltd., priority 2018, dated 2025)
